From ChEMBL document CHEMBL4715869, “N-(Pyrimidin-2-yl)-1,2,3,4-tetrahydroisoquinolin-6-amine Derivatives as Selective Janus Kinase 2 Inhibitors for the Treatment of Myeloproliferative Neoplasms” (J Med Chem, 2020)

What was measured:
[1] = Inhibition of JAK2 V617F mutant in mouse BaF3 cells assessed as reduction in cell viability incubated for 72 hrs by MTT assay
[2] = system: Receptor-type tyrosine-protein kinase FLT3 (Homo sapiens), P36888 [UNDEFINED MUTATION]; assay: Inhibition of FLT3 ITD mutant in human MOLM13 cells assessed as residual activity at 100 nM relative to control; type: cell-based; conditions: MOLM-13
Sequence of Receptor-type tyrosine-protein kinase FLT3 (Homo sapiens), P36888 [UNDEFINED MUTATION] (P36888 whole entry, looked up, stated change not applied): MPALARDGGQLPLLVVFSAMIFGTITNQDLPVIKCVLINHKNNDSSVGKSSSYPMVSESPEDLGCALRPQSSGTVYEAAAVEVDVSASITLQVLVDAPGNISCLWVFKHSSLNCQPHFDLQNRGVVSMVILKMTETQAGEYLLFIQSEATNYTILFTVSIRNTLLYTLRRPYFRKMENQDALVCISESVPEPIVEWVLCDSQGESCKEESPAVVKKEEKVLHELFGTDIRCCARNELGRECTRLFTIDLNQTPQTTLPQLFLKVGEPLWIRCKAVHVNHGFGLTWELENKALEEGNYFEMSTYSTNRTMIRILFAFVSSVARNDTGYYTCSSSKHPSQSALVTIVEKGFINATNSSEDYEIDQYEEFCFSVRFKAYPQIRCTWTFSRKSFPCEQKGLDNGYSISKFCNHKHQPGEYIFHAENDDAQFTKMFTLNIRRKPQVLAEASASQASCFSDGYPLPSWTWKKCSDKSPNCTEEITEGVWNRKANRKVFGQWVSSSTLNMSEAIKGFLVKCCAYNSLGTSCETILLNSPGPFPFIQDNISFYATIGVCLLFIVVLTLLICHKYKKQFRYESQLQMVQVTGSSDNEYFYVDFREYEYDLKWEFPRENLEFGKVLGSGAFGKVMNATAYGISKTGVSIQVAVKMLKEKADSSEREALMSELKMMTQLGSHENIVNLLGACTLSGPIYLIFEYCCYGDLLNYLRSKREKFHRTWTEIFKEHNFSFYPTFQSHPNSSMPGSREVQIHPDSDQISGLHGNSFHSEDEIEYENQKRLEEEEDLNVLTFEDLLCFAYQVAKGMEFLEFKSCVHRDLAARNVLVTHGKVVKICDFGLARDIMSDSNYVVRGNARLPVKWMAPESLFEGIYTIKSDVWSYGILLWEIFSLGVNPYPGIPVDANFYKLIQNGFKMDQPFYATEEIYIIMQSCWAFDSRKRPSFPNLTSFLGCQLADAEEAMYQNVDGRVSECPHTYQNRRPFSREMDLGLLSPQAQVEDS

SET-2 = assay: Antitumor activity against human SET2 cells xenografted in NOD/SCID mouse assessed as tumor growth inhibition at 60 mg/kg, po qd administered for 16 days and measured every 2 days relative to control; type: functional; conditions: SET-2, po, 384 h, time 16 day, read-out: TGI
BaF3 = assay: Antitumor activity against mouse BAF3 cells harboring JAK2 V617F mutant implanted in Balb/c mouse assessed as decrease in liver weight at 60 mg/kg, po qd administered starting from day 4 to 20 and measured on day 25 relative to control; type: functional; set-up: scale not given: the % may be the effect or the level left; conditions: time 21 day

Activity [2]	Compound	IC50 [1]	inhibition in vivo at 60 mg/kg (SET-2)	Activity (BaF3)
5%	Cc1cnc(Nc2ccc(N3CCC(N(C)CCO)CC3)c(F)c2)nc1-c1cnn(C(C)C)c1	145 nM	–	–
–	N#CC[C@H](C1CCCC1)n1cc(-c2ncnc3[nH]ccc23)cn1 [RUXOLITINIB]	–	52.8%	80.4%
